US20100056508A1, “AMINE DERIVATIVES AND THEIR USE IN BETA-2-ADRENORECEPTOR MEDIATED DISEASES” (ASTRAZENECA AB, priority 2006, published 2010)
Structures can show the parent of a compound that is named as a salt.

Key:
[1] = target: T1, recombinant human adrenergic beta 1 receptors (Homo sapiens, UniProt P08588); assay: Adrenergic β1 selectivity assay, [125I]-Iodocyanopindolol binding to membranes; conditions: inhibition of [125I]-Iodocyanopindolol binding, read-out: β1 bind pIC50 (converted)
T1 construct: purchased Euroscreen
T1 sequence (P08588 whole entry): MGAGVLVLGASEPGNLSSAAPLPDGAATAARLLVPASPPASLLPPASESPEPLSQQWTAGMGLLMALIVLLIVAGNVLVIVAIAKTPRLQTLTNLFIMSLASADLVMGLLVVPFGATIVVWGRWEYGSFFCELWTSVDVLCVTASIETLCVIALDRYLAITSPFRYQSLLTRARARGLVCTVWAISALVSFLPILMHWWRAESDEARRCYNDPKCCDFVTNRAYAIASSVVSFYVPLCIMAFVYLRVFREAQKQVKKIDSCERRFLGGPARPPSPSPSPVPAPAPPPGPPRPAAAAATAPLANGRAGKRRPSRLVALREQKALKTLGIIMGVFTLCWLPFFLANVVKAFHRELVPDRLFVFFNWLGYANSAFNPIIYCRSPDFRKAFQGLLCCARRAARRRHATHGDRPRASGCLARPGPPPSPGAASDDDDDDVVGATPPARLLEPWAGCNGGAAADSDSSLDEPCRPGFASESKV
Method: Membranes containing recombinant human adrenergic beta 1 receptors were obtained from Euroscreen. These were diluted in Assay Buffer (50 mM HEPES, 1 mM EDTA, 120 mM NaCl, 0.1% gelatin, pH 7.4) to provide a final concentration of membranes that gave a clear window between maximum and minimum specific binding.
(§1) Assays were performed in U-bottomed 96-well polypropylene plates. 10 μL [^125I]-Iodocyanopindolol (0.036 nM final concentration) and 10 μL of test compound (10× final concentration) were added to each test well. For each assay plate 8 replicates were obtained for [^125I]-Iodocyanopindolol binding in the presence of 10 μL vehicle (10% (v/v) DMSO in Assay Buffer; defining maximum binding) or 10 μL Propranolol (10 μM final concentration; defining non-specific binding (NSB)). Membranes were then added to achieve a final volume of 100 μL. The plates were incubated for 2 hours at room temperature and then filtered onto PEI coated GF/B filter plates, pre-soaked for 1 hour in Assay Buffer, using a 96-well plate Tomtec cell harvester. Five washes with 250 μL wash buffer (50 mM HEPES, 1 mM EDTA, 120 mM NaCl, pH 7.4) were performed at 4° C. to remove unbound radioactivity. The plates were dried then sealed from underneath using Packard plate sealers and MicroScint-O (50 μL) was added to each well. The plates were sealed (TopSeal A) and filter-bound radioactivity was measured with a scintillation counter (TopCount, Packard BioScience) using a 3-minute counting protocol.
(§2) Total specific binding (B0) was determined by subtracting the mean NSB from the mean maximum binding. NSB values were also subtracted from values from all other wells. […] Data was fitted to a four parameter logistic equation to determine the compound potency, which was expressed as pIC50 (negative log molar concentration inducing 50% inhibition of [^125I]-Iodocyanopindolol binding).

[2] = target: T2, recombinant human α1D receptor (Homo sapiens, UniProt P25100); assay: Adrenergic α1D selectivity assay, [3H]-prazosin binding to membranes; conditions: inhibition of [3H]-prazosin binding, HEK cell membranes, read-out: α1 bind pIC50 (converted)
T2 construct: expressed in transfected cells; host or cells: human embryonic kidney 293 cells (HEK93 [sic]), membranes
T2 sequence (P25100 1-572): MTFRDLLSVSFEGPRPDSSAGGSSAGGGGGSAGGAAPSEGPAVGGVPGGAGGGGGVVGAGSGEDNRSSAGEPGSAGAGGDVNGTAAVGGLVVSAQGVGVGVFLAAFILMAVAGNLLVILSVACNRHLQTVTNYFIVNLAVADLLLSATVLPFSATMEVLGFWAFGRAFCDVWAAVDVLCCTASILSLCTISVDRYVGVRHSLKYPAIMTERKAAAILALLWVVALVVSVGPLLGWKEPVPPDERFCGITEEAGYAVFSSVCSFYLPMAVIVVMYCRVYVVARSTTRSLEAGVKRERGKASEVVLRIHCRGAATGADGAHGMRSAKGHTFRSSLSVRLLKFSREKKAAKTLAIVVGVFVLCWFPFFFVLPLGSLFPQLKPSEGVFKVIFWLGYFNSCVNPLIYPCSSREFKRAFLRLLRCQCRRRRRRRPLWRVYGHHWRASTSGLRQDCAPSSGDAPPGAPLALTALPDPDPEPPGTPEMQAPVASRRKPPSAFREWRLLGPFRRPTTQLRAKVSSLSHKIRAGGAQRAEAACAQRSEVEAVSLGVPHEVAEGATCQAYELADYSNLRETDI
Method: Membranes were prepared from human embryonic kidney 293 ([…]) cells expressing recombinant human α1D receptor. These were diluted in Assay Buffer (50 mM HEPES, 1 mM EDTA, pH 7.4) to provide a final concentration of membranes that gave a clear window between maximum and minimum specific binding.
as §1, with “10 μL [^3H]-prazosin (0.3 nM final” for “10 μL [^125I]-Iodocyanopindolol (0.036 nM final”, “and […] of test” for “and 10 μL of test”, “obtained for [^3H]-prazosin binding in” for “obtained for [^125I]-Iodocyanopindolol binding in”, “10 μL BMY7378 (10 μM” for “10 μL Propranolol (10 μM”, “mM EDTA, pH 7.4)” for “mM EDTA, 120 mM NaCl, pH 7.4)”
as §2, with “[^3H]-prazosin” for “[^125I]-Iodocyanopindolol”

| IC50 [1] | IC50 [2] | Structure (SMILES) |
| --- | --- | --- |
| > 10 µM | > 10 µM | O=C1COc2c(CCNCCN(C(=O)CCNCCc3ccc(C(=O)O)cc3)C3CCCCC3)ccc(O)c2N1 [Example 43, 4-(2-(3-(Cyclohexyl(2-(2-(5-hydroxy-3-oxo-3,4-dihydro-2H-benzo[b][1,4]oxazin-8-yl)ethylamino)ethyl)amino)-3-oxopropylamino)ethyl)benzoic acid bis(trifluoroacetate)] |
| 2 µM | 0.0794 µM | O=C1COc2c(CCNCCN(C(=O)CCNCCc3ccc(Cl)c(Cl)c3)C3CCCCCC3)ccc(O)c2N1 [Example 26, N-Cycloheptyl-3-(3,4-dichlorophenethylamino)-N-(2-(2-(5-hydroxy-3-oxo-3,4-dihydro-2H-benzo[b][1,4]oxazin-8-yl)ethylamino)ethyl)propanamide bis(trifluoroacetate)] |
| 2.51 µM | 0.2 µM | O=C(CCNCCc1ccccc1)N(CCNCCc1ccc(O)c(O)c1)C1CCCCC1 [Example 22, N-Cyclohexyl-N-(2-(3,4-dihydroxyphenethylamino)ethyl)-3-(phenethylamino)propanamide bis(trifluoroacetate)] |
| 3.16 µM | 0.158 µM | O=C1COc2c(CCNCCN(C(=O)CCNCCc3ccc(Cl)cc3Cl)C3CCCCC3)ccc(O)c2N1 [Example 31, N-Cyclohexyl-3-(2,4-dichlorophenethylamino)-N-(2-(2-(5-hydroxy-3-oxo-3,4-dihydro-2H-benzo[b][1,4]oxazin-8-yl)ethylamino)ethyl)propanamide bis(trifluoroacetate)] |
| 3.16 µM | 0.126 µM | O=C1COc2c(CCNCCN(C(=O)CCNCCc3cccc(Cl)c3)C3CCCCC3)ccc(O)c2N1 [Example 27, 3-(3-Chlorophenethylamino)-N-cyclohexyl-N-(2-(2-(5-hydroxy-3-oxo-3,4-dihydro-2H-benzo[b][1,4]oxazin-8-yl)ethylamino)ethyl)propanamide bis(trifluoroacetate)] |
| > 10 µM | 0.398 µM | O=C1COc2c(CCNCCN(C(=O)CCNCCc3cc(F)cc(F)c3)C3CCCCC3)ccc(O)c2N1 [Example 35, N-Cyclohexyl-3-(3,5-difluorophenethylamino)-N-(2-(2-(5-hydroxy-3-oxo-3,4-dihydro-2H-benzo[b][1,4]oxazin-8-yl)ethylamino)ethyl)propanamide bis(trifluoroacetate)] |
| 1.58 µM | 0.398 µM | O=C1COc2c(CCNCCN(C(=O)CCNCCc3cc(F)cc(Cl)c3)C3CCCCCC3)ccc(O)c2N1 [Example 66, 3-(3-Chloro-5-fluorophenethylamino)-N-cycloheptyl-N-(2-(2-(5-hydroxy-3-oxo-3,4-dihydro-2H-benzo[b][1,4]oxazin-8-yl)ethylamino)ethyl)propanamide bis(trifluoroacetate)] |
| 0.794 µM | 0.126 µM | CCCC[C@@H](C)N(CCNCCc1ccc(O)c2c1OCC(=O)N2)C(=O)CCNCCc1ccc(F)c(Cl)c1 [Example 48, (R)-3-(3-Chloro-4-fluorophenethylamino)-N-(hexan-2-yl)-N-(2-(2-(5-hydroxy-3-oxo-3,4-dihydro-2H-benzo[b][1,4]oxazin-8-yl)ethylamino)ethyl)propanamide bis(trifluoroacetate)] |
| 2.51 µM | 0.0631 µM | CCCC[C@@H](C)N(CCNCCc1ccc(O)c2c1OCC(=O)N2)C(=O)CCNCCc1ccccc1 [Example 25, (R)—N-(Hexan-2-yl)-N-(2-(2-(5-hydroxy-3-oxo-3,4-dihydro-2H-benzo[b][1,4]oxazin-8-yl)ethylamino)ethyl)-3-(phenethylamino)propanamide bis(trifluoroacetate)] |
| 1.26 µM | 0.631 µM | O=C1COc2c(CCNCCN(C(=O)CCOCCc3ccc(F)cc3)C3CCCCC3)ccc(O)c2N1 [Example 75, N-Cyclohexyl-3-(4-fluorophenethoxy)-N-(2-(2-(5-hydroxy-3-oxo-3,4-dihydro-2H-benzo[b][1,4]oxazin-8-yl)ethylamino)ethyl)propanamide trifluoroacetate] |
| 1.26 µM | 0.0794 µM | O=C(CCNCCc1cccc(Cl)c1)N(CCNCCc1ccc(O)c2[nH]c(=O)ccc12)C1CCCCCC1 [Example 3, 3-(3-Chlorophenethylamino)-N-cycloheptyl-N-(2-(2-(8-hydroxy-2-oxo-1,2-dihydroquinolin-5-yl)ethylamino)ethyl)propanamide bis(trifluoroacetate)] |
| 2 µM | 0.316 µM | CCCC[C@@H](C)N(CCNCCc1ccc(O)c2c1OCC(=O)N2)C(=O)CCNCCc1cc(F)cc(F)c1 [Example 51, (R)-3-(3,5-Difluorophenethylamino)-N-(hexan-2-yl)-N-(2-(2-(5-hydroxy-3-oxo-3,4-dihydro-2H-benzo[b][1,4]oxazin-8-yl)ethylamino)ethyl)propanamide bis(trifluoroacetate)] |
| 2.51 µM | 0.398 µM | O=C1COc2c(CCNCCN(C(=O)CCNCCc3cc(F)cc(F)c3)C3CCCCCC3)ccc(O)c2N1 [Example 65, N-Cycloheptyl-3-(3,5-difluorophenethylamino)-N-(2-(2-(5-hydroxy-3-oxo-3,4-dihydro-2H-benzo[b][1,4]oxazin-8-yl)ethylamino)ethyl)propanamide bis(trifluoroacetate)] |
| 1 µM | 0.316 µM | CCCC[C@@H](C)N(CCNCCc1ccc(O)c2c1OCC(=O)N2)C(=O)CCNCCc1ccc(Cl)s1 [Example 49, (R)-3-(2-(5-Chlorothiophen-2-yl)ethylamino)-N-(hexan-2-yl)-N-(2-(2-(5-hydroxy-3-oxo-3,4-dihydro-2H-benzo[b][1,4]oxazin-8-yl)ethylamino)ethyl)propanamide bis(trifluoroacetate)] |
| > 10 µM | 0.501 µM | O=C(CCNCCc1cc(F)cc(F)c1)N(CCNCCc1ccc(O)c2[nH]c(=O)ccc12)C1CCCCC1 [Example 15, N-Cyclohexyl-3-(3,5-difluorophenethylamino)-N-(2-(2-(8-hydroxy-2-oxo-1,2-dihydroquinolin-5-yl)ethylamino)ethyl)propanamide bis(trifluoroacetate)] |
| > 10 µM | 0.501 µM | CC(C)[C@@H](C)N(CCNCCc1ccc(O)c2[nH]c(=O)ccc12)C(=O)CCOCCc1ccccc1.Cl [Example 80, (R)—N-(2-(2-(8-Hydroxy-2-oxo-1,2-dihydroquinolin-5-yl)ethylamino)ethyl)-N-(3-methylbutan-2-yl)-3-phenethoxypropanamide hydrochloride] |

| Structure (SMILES) | IC50 [1] | IC50 [2] |
| --- | --- | --- |
| CCCC[C@@H](C)N(CCNCCc1ccc(O)c2c1OCC(=O)N2)C(=O)CCNCCc1cc(F)ccc1C [Example 57, (R)-3-(5-Fluoro-2-methylphenethylamino)-N-(hexan-2-yl)-N-(2-(2-(5-hydroxy-3-oxo-3,4-dihydro-2H-benzo[b][1,4]oxazin-8-yl)ethylamino)ethyl)propanamide bis(trifluoroacetate)] | 1.58 µM | 0.1 µM |
